Experimental data taken from PMC8213057, “Targeting ALK2: An Open Science Approach to Developing Therapeutics for the Treatment of Diffuse Intrinsic Pontine Glioma” (Journal of Medicinal Chemistry, 2020).

Experiments:
MKK7 = biological target: T1, MKK7 (Homo sapiens, UniProt O14733); test: biochemical; conditions: read-out: % enzyme activity, 1 μM; Run 1, Run 2
T1 sequence (O14733 1-419): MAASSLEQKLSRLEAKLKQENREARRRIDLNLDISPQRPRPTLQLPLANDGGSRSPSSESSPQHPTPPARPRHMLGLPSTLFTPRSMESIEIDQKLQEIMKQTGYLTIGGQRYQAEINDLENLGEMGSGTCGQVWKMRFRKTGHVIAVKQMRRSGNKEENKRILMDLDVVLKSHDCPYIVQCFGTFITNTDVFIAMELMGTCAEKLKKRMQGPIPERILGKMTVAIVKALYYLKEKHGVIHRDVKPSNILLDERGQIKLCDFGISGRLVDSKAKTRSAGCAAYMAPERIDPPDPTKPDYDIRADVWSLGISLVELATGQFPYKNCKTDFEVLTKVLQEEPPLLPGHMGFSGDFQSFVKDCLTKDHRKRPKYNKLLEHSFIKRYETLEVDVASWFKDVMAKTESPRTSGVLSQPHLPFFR

CHK2 = CHK2 (Homo sapiens, UniProt O96017); test: biochemical; conditions: read-out: % enzyme activity, 1 μM; Run 1, Run 2
EPHA3 = biological target: T2, EPHA3 (Homo sapiens, UniProt P29320); conditions: 1 μM; Run 1, Run 2
T2 sequence (P29320 21-983): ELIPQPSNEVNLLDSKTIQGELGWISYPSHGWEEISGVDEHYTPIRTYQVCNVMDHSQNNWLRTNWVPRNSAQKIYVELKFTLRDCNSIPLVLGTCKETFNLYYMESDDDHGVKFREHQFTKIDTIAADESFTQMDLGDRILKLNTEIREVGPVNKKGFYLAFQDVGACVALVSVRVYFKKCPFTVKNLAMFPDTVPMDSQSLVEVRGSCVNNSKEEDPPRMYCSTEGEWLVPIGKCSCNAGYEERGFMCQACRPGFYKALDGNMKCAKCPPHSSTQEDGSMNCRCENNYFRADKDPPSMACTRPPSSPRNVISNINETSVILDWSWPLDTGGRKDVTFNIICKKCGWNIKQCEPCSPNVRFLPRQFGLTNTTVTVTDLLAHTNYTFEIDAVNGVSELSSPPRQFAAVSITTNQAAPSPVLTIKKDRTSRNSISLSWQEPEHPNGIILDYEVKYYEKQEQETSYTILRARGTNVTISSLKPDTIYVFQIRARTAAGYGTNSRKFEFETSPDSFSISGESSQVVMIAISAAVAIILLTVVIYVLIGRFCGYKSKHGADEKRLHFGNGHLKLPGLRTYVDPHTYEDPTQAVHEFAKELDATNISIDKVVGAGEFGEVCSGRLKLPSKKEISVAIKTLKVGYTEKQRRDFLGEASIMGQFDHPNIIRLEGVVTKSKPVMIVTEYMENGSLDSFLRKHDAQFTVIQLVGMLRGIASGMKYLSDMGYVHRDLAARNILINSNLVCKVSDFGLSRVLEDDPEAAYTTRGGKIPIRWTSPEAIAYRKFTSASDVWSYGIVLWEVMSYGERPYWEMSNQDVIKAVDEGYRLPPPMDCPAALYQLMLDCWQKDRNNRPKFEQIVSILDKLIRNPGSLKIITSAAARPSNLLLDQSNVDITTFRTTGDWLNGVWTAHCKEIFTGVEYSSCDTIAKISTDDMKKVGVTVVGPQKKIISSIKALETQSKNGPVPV

HPK1/MAP4K1 = HPK1/MAP4K1 (Homo sapiens, UniProt Q92918); conditions: 1 μM; Run 1, Run 2
P38a/MAPK14 = P38a/MAPK14 (Homo sapiens, UniProt Q16539); conditions: 1 μM; Run 1, Run 2
SIK1 = SIK1 (Homo sapiens, UniProt P57059); conditions: 1 μM; Run 1, Run 2
AKT2 = AKT2 (Homo sapiens, UniProt P31751); test: biochemical; conditions: read-out: % enzyme activity, 1 μM; Run 1, Run 2
MNK1 = MNK1 (Homo sapiens, UniProt Q9BUB5); test: biochemical; conditions: read-out: % enzyme activity, 1 μM; Run 1, Run 2
CK1g1 = CK1g1 (Homo sapiens, UniProt Q9HCP0); conditions: 1 μM; Run 1, Run 2
MEKK1 = MEKK1 (Homo sapiens, UniProt Q13233); conditions: 1 μM; Run 1, Run 2
CDK18/cyclin Y (PCTK3) = CDK18/cyclin Y (PCTK3) (Homo sapiens, UniProt Q07002); conditions: 1 μM; Run 1, Run 2
CDK2/cyclin O = CDK2/cyclin O (Homo sapiens, UniProt P24941); conditions: 1 μM; Run 1, Run 2
MEK1 = MEK1 (Homo sapiens, UniProt Q02750); conditions: 1 μM; Run 1, Run 2
EPHA7 = EPHA7 (Homo sapiens, UniProt Q15375); conditions: 1 μM; Run 1, Run 2
GRK1 = biological target: T3, GRK1 (Homo sapiens, UniProt Q15835); conditions: 1 μM; Run 1, Run 2
T3 sequence (Q15835 1-563): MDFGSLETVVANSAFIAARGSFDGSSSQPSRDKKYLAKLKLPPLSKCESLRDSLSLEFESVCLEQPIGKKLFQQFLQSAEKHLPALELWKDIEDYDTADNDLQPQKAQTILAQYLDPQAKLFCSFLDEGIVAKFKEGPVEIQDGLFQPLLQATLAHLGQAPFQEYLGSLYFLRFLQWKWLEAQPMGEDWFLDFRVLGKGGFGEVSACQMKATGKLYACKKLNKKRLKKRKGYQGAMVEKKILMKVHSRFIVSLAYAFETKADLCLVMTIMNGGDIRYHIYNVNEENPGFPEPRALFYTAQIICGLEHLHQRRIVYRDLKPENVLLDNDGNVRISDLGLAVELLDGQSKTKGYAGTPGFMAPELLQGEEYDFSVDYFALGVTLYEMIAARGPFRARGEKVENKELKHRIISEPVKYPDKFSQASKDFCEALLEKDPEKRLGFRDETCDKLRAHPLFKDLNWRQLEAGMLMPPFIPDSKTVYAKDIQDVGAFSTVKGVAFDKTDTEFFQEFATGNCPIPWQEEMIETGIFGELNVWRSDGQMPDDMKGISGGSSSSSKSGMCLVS

ZAK/MLTK = ZAK/MLTK (Homo sapiens, UniProt Q9NYL2); test: 375-member kinase panel; format: biochemical; conditions: Run 1, Run 2; for % enzyme activity: 1 μM; for remaining activity at 1 µM: read-out: % enzyme activity, 1 μM
CAMK2a = CAMK2a (Homo sapiens, UniProt Q9UQM7); conditions: 1 μM; Run 1, Run 2

Sequence of ZAK/MLTK (Q9NYL2 whole entry): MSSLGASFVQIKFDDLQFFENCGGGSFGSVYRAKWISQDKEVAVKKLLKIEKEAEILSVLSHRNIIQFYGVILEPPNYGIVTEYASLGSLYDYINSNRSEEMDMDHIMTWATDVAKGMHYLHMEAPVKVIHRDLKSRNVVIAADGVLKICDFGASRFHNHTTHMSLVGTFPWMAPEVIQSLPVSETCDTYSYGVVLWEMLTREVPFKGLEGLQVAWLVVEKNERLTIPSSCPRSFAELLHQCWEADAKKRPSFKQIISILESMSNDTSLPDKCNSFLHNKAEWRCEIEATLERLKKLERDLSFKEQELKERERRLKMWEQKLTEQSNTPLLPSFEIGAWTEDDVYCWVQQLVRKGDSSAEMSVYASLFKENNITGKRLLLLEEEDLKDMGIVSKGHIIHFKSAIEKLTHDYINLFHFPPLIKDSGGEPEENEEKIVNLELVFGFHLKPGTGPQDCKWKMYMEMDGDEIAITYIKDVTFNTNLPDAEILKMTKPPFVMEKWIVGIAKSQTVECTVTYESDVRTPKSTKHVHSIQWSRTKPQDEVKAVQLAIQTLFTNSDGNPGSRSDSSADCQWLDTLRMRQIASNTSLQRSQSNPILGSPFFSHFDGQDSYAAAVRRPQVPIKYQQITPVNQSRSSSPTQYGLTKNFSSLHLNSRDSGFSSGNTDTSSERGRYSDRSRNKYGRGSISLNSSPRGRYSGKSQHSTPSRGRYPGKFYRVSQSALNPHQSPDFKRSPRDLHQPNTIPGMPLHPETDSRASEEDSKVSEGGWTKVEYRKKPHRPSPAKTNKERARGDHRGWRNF
Sequence of HPK1/MAP4K1 (Q92918 whole entry): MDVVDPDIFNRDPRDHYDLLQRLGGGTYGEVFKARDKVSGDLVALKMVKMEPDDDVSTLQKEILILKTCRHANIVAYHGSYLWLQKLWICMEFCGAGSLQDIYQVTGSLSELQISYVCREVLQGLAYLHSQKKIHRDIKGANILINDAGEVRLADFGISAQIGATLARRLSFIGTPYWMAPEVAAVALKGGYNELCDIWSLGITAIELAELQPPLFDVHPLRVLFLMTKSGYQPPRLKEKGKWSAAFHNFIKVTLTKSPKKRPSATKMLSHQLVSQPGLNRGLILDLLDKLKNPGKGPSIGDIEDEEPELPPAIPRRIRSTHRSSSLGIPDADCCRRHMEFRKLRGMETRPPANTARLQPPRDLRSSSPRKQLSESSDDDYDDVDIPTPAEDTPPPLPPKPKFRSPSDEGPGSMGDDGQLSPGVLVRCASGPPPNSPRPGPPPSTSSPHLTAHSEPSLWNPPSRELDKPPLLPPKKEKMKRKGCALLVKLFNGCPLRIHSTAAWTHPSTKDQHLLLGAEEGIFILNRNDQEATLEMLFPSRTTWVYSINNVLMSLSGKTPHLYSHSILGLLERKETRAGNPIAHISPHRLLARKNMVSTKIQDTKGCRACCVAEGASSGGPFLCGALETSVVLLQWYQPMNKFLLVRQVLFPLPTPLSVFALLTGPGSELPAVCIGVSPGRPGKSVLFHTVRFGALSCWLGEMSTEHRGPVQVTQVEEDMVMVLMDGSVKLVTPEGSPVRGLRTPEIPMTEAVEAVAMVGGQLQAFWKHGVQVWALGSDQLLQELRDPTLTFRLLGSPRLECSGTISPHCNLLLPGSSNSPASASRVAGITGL
Sequence of CHK2 (O96017 whole entry): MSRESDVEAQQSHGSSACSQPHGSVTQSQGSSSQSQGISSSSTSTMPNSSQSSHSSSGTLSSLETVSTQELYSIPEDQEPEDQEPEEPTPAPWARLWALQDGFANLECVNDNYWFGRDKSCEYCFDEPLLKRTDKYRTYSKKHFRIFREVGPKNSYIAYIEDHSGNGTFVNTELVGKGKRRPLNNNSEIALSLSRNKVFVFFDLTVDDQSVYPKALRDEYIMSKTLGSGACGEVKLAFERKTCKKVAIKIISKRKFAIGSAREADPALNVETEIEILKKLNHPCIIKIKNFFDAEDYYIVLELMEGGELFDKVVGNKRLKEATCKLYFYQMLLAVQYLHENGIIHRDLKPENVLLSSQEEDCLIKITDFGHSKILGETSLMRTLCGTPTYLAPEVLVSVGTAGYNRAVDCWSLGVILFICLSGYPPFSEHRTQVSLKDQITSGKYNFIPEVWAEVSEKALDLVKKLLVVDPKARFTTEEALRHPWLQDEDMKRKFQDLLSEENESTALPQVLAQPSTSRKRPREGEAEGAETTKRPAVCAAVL
Sequence of CDK18/cyclin Y (PCTK3) (Q07002 whole entry): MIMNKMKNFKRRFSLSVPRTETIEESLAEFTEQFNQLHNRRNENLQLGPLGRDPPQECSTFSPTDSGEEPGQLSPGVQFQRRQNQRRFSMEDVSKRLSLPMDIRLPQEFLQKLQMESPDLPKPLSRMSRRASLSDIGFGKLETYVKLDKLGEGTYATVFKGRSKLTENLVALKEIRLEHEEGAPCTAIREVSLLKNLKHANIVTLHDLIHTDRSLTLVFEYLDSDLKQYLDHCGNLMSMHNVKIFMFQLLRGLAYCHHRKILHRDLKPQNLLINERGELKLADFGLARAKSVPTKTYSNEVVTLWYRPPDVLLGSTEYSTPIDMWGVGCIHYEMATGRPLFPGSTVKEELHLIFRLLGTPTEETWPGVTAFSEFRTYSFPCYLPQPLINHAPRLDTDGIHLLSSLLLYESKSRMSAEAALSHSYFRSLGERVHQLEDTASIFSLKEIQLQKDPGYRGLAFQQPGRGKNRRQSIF
Sequence of CDK18/cyclin Y (PCTK3) (Q8ND76 whole entry partner): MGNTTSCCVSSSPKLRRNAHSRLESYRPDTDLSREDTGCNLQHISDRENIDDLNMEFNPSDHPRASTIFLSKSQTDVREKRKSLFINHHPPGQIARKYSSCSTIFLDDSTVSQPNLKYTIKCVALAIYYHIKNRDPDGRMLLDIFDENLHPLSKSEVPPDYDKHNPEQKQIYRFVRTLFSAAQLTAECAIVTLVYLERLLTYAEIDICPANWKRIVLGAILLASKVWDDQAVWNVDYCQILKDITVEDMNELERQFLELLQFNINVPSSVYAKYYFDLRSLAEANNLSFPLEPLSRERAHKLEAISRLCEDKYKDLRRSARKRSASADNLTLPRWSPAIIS
Sequence of AKT2 (P31751 whole entry): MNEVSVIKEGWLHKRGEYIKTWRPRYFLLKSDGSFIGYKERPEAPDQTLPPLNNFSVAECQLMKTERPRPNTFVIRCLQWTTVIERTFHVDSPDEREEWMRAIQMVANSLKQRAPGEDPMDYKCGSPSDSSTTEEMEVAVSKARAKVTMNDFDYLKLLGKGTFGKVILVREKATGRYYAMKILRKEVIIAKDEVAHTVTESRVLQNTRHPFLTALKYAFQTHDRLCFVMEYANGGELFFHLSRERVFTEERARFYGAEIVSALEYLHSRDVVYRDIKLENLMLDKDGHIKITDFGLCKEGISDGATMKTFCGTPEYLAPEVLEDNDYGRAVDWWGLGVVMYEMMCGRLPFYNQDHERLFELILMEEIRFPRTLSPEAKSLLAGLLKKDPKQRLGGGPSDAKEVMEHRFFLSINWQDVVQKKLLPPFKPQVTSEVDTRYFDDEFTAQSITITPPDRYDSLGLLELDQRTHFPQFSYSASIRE
Sequence of SIK1 (P57059 whole entry): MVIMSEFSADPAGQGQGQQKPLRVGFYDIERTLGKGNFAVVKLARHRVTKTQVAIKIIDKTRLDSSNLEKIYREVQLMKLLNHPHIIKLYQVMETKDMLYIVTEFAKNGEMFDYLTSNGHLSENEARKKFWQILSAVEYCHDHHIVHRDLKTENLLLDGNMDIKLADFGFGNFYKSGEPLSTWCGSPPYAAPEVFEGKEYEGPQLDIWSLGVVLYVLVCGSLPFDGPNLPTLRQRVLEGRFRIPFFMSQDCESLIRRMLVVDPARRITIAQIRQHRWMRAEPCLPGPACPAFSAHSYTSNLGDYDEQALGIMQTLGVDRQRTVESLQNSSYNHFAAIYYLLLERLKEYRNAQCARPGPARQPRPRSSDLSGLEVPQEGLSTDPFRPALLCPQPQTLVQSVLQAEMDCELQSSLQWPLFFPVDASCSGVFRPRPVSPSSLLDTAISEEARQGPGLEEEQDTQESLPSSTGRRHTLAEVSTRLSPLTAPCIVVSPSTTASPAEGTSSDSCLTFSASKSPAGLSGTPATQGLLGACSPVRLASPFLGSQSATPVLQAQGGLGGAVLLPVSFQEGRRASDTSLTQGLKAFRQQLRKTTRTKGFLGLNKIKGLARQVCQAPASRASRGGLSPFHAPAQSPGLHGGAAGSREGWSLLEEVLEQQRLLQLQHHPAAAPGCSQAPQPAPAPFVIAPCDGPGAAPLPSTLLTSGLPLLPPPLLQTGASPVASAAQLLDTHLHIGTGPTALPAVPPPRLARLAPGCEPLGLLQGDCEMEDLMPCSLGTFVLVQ
Sequence of CK1g1 (Q9HCP0 whole entry): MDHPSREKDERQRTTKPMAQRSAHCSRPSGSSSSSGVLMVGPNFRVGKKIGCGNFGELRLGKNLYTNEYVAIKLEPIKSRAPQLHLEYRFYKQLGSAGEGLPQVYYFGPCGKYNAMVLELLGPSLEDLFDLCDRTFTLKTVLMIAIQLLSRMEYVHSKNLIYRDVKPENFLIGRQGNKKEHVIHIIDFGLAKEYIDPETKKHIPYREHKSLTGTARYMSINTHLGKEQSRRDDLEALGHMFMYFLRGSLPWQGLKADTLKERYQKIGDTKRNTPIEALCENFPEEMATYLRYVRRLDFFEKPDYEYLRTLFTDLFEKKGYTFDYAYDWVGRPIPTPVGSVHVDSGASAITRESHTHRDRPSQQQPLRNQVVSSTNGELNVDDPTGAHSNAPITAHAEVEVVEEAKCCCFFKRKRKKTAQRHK

Row | SMILES | remaining activity at 1 µM (MKK7) [%] | remaining activity at 1 µM (CHK2) [%] | % enzyme activity (EPHA3) [%] | % enzyme activity (HPK1/MAP4K1) [%] | % enzyme activity (P38a/MAPK14) [%] | % enzyme activity (SIK1) [%] | remaining activity at 1 µM (AKT2) [%] | remaining activity at 1 µM (MNK1) [%] | % enzyme activity (CK1g1) [%] | % enzyme activity (MEKK1) [%] | % enzyme activity (CDK18/cyclin Y (PCTK3)) [%] | % enzyme activity (CDK2/cyclin O) [%] | % enzyme activity (MEK1) [%] | % enzyme activity (EPHA7) [%] | % enzyme activity (GRK1) [%] | % enzyme activity (ZAK/MLTK) [%] | remaining activity at 1 µM (ZAK/MLTK) [%] | % enzyme activity (CAMK2a) [%]
1 | COc1cc(-c2cncc(-c3ccc(N4C[C@@H](C)N(C)[C@@H](C)C4)cc3)c2C)cc(F)c1C(N)=O [Compound 26c, 2-Fluoro-6-methoxy-4-(4-methyl-5-(4-((3R,5S)-3,4,5-trimethylpiperazin-1-yl)phenyl)pyridin-3-yl)benzamide] | 98.7 | 102 | 98.11 | 74.31 | 96.02 | 91.60 | 93 | 71.4 | 69.61 | 97.31 | 97.60 | 88.53 | 93.40 | 98.36 | 94.01 | 46.59 | 46.6 | 93.72
2 | COc1cc(-c2cncc(-c3ccc(N4CCN(C)CC4)cc3)c2C)cc(F)c1C(N)=O [Compound 26a, 2-Fluoro-6-methoxy-4-(4-methyl-5-(4-(4-methylpiperazin-1-yl)phenyl)pyridin-3-yl)benzamide] | 93 | 99.7 | 94.70 | 57.53 | 91.67 | 82.71 | 91.9 | 51.1 | 55.41 | 92.92 | 100.43 | 93.78 | 97.44 | 98.85 | 93.15 | 30.86 | 31.3 | 83.69
